Measurements: patent US8378085B2, “Bacterial ATP synthase binding domain” (priority 2004, dated 2013)

Tested on: DARQ J mutant M. tuberculosis
Assay type: cell-based, Mycobacterium tuberculosis

Structure (SMILES)	effect on ATP production (total cellular ATP)
C(=NC1CCCCC1)=NC1CCCCC1 [DCCD, reference compound]	able to block the ATP production
COc1nc2ccc(Br)cc2cc1[C@@H](c1ccccc1)[C@@](O)(CCN(C)C)c1cccc2ccccc12 [J]	did not show any decrease

Tested on: M. tuberculosis strains resistant to J
Assay type: cell-based, Mycobacterium tuberculosis

Structure (SMILES)	sensitivity of M. tuberculosis strains resistant to J to the anti-TB agent
NCC[C@H](O)C(=O)N[C@@H]1C[C@H](N)[C@@H](O[C@H]2O[C@H](CN)[C@@H](O)[C@H](O)[C@H]2O)[C@H](O)[C@H]1O[C@H]1O[C@H](CO)[C@@H](O)[C@H](N)[C@H]1O [amikacin]	unchanged
CC[C@@H](CO)NCCN[C@@H](CC)CO [ethambutol]	unchanged
NNC(=O)c1ccncc1 [isoniazid]	unchanged
CO[C@H]1/C=C/O[C@@]2(C)Oc3c(C)c(O)c4c(O)c(c(/C=N/N5CCN(C)CC5)c(O)c4c3C2=O)NC(=O)/C(C)=C\C=C\[C@H](C)[C@H](O)[C@@H](C)[C@@H](O)[C@@H](C)[C@H](OC(C)=O)[C@@H]1C [rifampin]	unchanged
[H]/N=C(/N)N[C@H]1[C@H](O)[C@@H](O)[C@H](O[C@@H]2O[C@@H](C)[C@](O)(C=O)[C@H]2O[C@@H]2O[C@@H](CO)[C@H](O)[C@@H](O)[C@@H]2NC)[C@@H](N/C(N)=N\[H])[C@@H]1O [streptomycin]	unchanged
